# Assay results taken from patent publication US20240148747A1, “SMALL MOLECULE ACTIVATORS OF YAP TRANSCRIPTIONAL ACTIVITY FOR REGENERATIVE ORGAN REPAIR” (THE SCRIPPS RESEARCH INSTITUTE, priority 2021, published 2024).
# Where two headings read alike, the source gives them in different places.
# How the values were obtained:
# [1] = tested on: YAP; assay: TEAD-LUC activation assay (293A-TEAD-LUC reporter); format: cell-based; settings: Homo sapiens, read-out: TEAD-LUC activation assay EC50
# Excerpt: More specifically, we used a 293A cell line harboring a stably integrated cassette containing 8 copies of the TEAD binding element upstream of luciferase (8xGTII-LUC). These cells retain responsiveness to contact inhibition-induced decreases in YAP transcriptional output.^6 The TEAD-responsive reporter assay (called 293A-TEAD-LUC throughout) was adapted to 1536-well format and then used to screen a library of ˜738k compounds for YAP-inducing activity.
# Additional compounds of the present disclosure were subjected to the assay described above.
# [2] = Cytotoxicity in the TEAD-LUC activation assay; settings: human
compound,measurement,setting,value
O=C(NCCCn1ccnn1)c1cc(-c2ccc(OC(F)(F)F)cc2)on1 [Compound 77],EC50,[1]; Table 3,> 20 µM
same,IC50,[2],> 20 µM
Cc1ccc(N2CC(C(=O)NCc3n[nH]c4ccccc34)CC2=O)cc1 (stereo not shown) [Compound 156],EC50,[1]; Table 4,5 µM
same,IC50,[2],> 20 µM
O=C(NCCCc1nccs1)c1cc(C(F)(F)F)ncn1 [Compound 105],EC50,[1]; Table 3,> 20 µM
same,IC50,[2],> 20 µM
O=C(NCCCN1CCOCC1)c1cc(-c2ccccc2F)on1 [Compound 100],EC50,[1]; Table 3,10 µM
same,IC50,[2],> 20 µM
O=C(NCC(F)(F)F)c1cc(-c2ccccc2)on1 [Compound 63],EC50,[1]; Table 3,7.58 µM
same,IC50,[2],> 20 µM
O=C(NCCN1CCOCC1)c1cc(-c2ccccc2)on1 [Compound 122],EC50,[1]; Table 4,5.48 µM
same,IC50,[2],> 20 µM
CN(C)CCN(C(=O)c1cc(-c2ccccc2)on1)c1ccccc1 [Compound 126],EC50,[1]; Table 4,> 20 µM
same,IC50,[2],> 20 µM
O=C(Nc1cccc(-c2nccs2)c1)c1cc(-c2ccccc2)on1 [Compound 37],EC50,[1]; Table 3,15 µM
same,IC50,[2],> 20 µM
O=C(NCCCN1CCOCC1)c1cc(-c2ccc(Cl)cc2)on1 [Compound 134],EC50,[1]; Table 4,> 20 µM
same,IC50,[2],> 20 µM
O=C(NC12CC(C(F)(F)F)(C1)C2)c1cc(-c2ccccc2)on1 [Compound 56],EC50,[1]; Table 3,> 20 µM
same,IC50,[2],> 20 µM
N#Cc1ccc(-c2cc(C(=O)NCCCn3cccc3)no2)cc1 [Compound 20],EC50,[1]; Table 3,> 20 µM
same,IC50,[2],> 20 µM
C[C@H](NC(=O)c1cc(-c2ccccc2)on1)c1ccc(Cl)cc1 [Compound 67],EC50,[1]; Table 3,> 20 µM
same,IC50,[2],> 20 µM
NC(=O)c1ccc(-c2cc(C(=O)NCCCc3nccs3)no2)cc1 [Compound 32],EC50,[1]; Table 3,> 20 µM
same,IC50,[2],> 20 µM
O=C(Nc1ccccc1-n1cncn1)c1cc(-c2ccccc2)on1 [Compound 143],EC50,[1]; Table 4,> 20 µM
same,IC50,[2],> 20 µM
O=C(NCCCc1ncco1)c1cc(-c2ccccc2)on1 [Compound 27],EC50,[1]; Table 3,3.8 µM
same,IC50,[2],> 20 µM
O=C(NCCc1nccs1)c1cc(-c2ccccc2)on1 [Compound 90],EC50,[1]; Table 3,2.5 µM
same,IC50,[2],> 20 µM
CN1C(=O)CCc2cc(NC(=O)c3ccncc3)ccc21 [Compound 146],EC50,[1]; Table 4,15 µM
same,IC50,[2],> 20 µM
O=C(NCCCN1CCN(C(=O)c2ccccc2)CC1)c1cc(-c2ccccc2)on1 [Compound 38],EC50,[1]; Table 3,3.34 µM
same,IC50,[2],> 20 µM
O=C(NCCCn1cncn1)c1cc(-c2ccccc2)on1 [Compound 113],EC50,[1]; Table 4,3.25 µM
same,IC50,[2],> 20 µM
O=C(NCc1cccs1)c1cc(-c2ccccc2)on1 [Compound 54],EC50,[1]; Table 3,> 20 µM
same,IC50,[2],> 20 µM
O=C(NCCn1cccc1)c1n[nH]c2ccccc12 [Compound 93],EC50,[1]; Table 3,> 20 µM
same,IC50,[2],> 20 µM
O=C(NCCCn1ccnc1)c1cc(-c2ccccc2)on1 [Compound 114],EC50,[1]; Table 4,2.97 µM
same,IC50,[2],> 20 µM
CC(=O)N1CCN(CCCNC(=O)c2cc(-c3ccccc3)on2)CC1 [Compound 36],EC50,[1]; Table 3,4.36 µM
same,IC50,[2],> 20 µM
O=C(NCCCn1ccnn1)c1cc(-c2ccc(Cl)cc2)on1 [Compound 81],EC50,[1]; Table 3,> 20 µM
same,IC50,[2],> 20 µM
O=C(NCCCc1nccs1)c1nc2ccccc2o1 [Compound 88],EC50,[1]; Table 3,> 20 µM
same,IC50,[2],> 20 µM
O=C(NCCCN1CCOCC1)c1cc(-c2ccc(Cl)c(Cl)c2)on1 [Compound 120],EC50,[1]; Table 4,> 20 µM
same,IC50,[2],> 20 µM
O=C(NCCCn1ccnn1)c1cc(-c2cccnc2)on1 [Compound 78],EC50,[1]; Table 3,> 20 µM
same,IC50,[2],> 20 µM
O=C(NCCCn1ccnn1)c1cc(-c2ccccc2F)on1 [Compound 71],EC50,[1]; Table 3,5 µM
same,IC50,[2],> 20 µM
NC(=O)CCN(Cc1ccccc1)C(=O)c1cc(-c2ccccc2)on1 [Compound 133],EC50,[1]; Table 4,> 20 µM
same,IC50,[2],> 20 µM
O=C(NCCCc1nccs1)c1noc(-c2ccccc2)n1 [Compound 103],EC50,[1]; Table 3,> 20 µM
same,IC50,[2],> 20 µM
O=C(NCCCN1CCOCC1)c1cc(-c2ccccc2)on1 [Compound 112],EC50,[1]; Table 4,6.71 µM
same,IC50,[2],> 20 µM
O=C(NCCCn1cccc1)c1cc(-c2ccccc2)on1 [Compound 110],EC50,[1]; Table 4,1.02 µM
same,IC50,[2],> 20 µM
Cc1ccc(NCCCNC(=O)c2cc(-c3ccccc3)on2)nc1 [Compound 131],EC50,[1]; Table 4,2.88 µM
same,IC50,[2],> 20 µM
O=C(NCCCn1cccc1)c1cc(-c2ccncc2)on1 [Compound 29],EC50,[1]; Table 3,> 20 µM
same,IC50,[2],> 20 µM
O=C(NCCCn1cccc1)c1cc(-c2ccc(F)cc2)on1 [Compound 2],EC50,[1]; Table 3,1.13 µM
same,IC50,[2],> 20 µM
O=C(NCCCNc1cccc(F)c1)c1cc(-c2ccccc2)on1 [Compound 95],EC50,[1]; Table 3,2.5 µM
same,IC50,[2],> 20 µM
Cc1ccc(C(=O)NC2CCN(C(=O)c3cc(-c4ccccc4)on3)CC2)o1 [Compound 132],EC50,[1]; Table 4,> 20 µM
same,IC50,[2],> 20 µM
O=C(NCCCn1cccc1)c1cc(-c2cccnc2)on1 [Compound 21],EC50,[1]; Table 3,> 20 µM
same,IC50,[2],> 20 µM
CS(=O)(=O)c1ccc(-c2cc(C(=O)NCCCc3nccs3)no2)cc1 [Compound 39],EC50,[1]; Table 3,> 20 µM
same,IC50,[2],> 20 µM
CC(CNC(=O)c1cc(-c2ccccc2)on1)c1ccc(Cl)cc1 (stereo not shown) [Compound 64],EC50,[1]; Table 3,> 20 µM
same,IC50,[2],> 20 µM
O=C(NCCCn1ccnn1)c1cc(-c2cccc(F)c2)on1 [Compound 74],EC50,[1]; Table 3,15 µM
same,IC50,[2],> 20 µM
COC(=O)N1CCN(CCCNC(=O)c2cc(-c3ccccc3)on2)CC1 [Compound 41],EC50,[1]; Table 3,3.38 µM
same,IC50,[2],> 20 µM
O=C(NCCCn1ccnn1)c1cc(-c2ccccc2)on1 [Compound 14],EC50,[1]; Table 3,1.93 µM
same,IC50,[2],> 20 µM
CC1CN(C(=O)CCNC(=O)c2cc(-c3ccccc3)on2)CC(C)O1 (stereo not shown) [Compound 124],EC50,[1]; Table 4,6.71 µM
same,IC50,[2],> 20 µM
CN1C(=O)CCc2cc(NC(=O)c3n[nH]c4ccccc34)ccc21 [Compound 147],EC50,[1]; Table 4,2.5 µM
same,IC50,[2],> 20 µM
O=C(NCCCn1ccnn1)c1cc(-c2ccc(C(F)(F)F)cc2)on1 [Compound 76],EC50,[1]; Table 3,> 20 µM
same,IC50,[2],> 20 µM
Cc1ccc(CCNC(=O)c2cc(-c3ccccc3)on2)cc1 [Compound 48],EC50,[1]; Table 3,> 20 µM
same,IC50,[2],> 20 µM
O=C(NCCc1cccc(F)c1)c1cc(-c2ccccc2)on1 [Compound 55],EC50,[1]; Table 3,> 20 µM
same,IC50,[2],> 20 µM
Cc1ccc(-c2cc(C(=O)NCCC(=O)N(C)Cc3ccccc3)no2)cc1 [Compound 119],EC50,[1]; Table 4,> 20 µM
same,IC50,[2],> 20 µM
O=C(NCCn1cccc1)c1cc(-c2ccccc2)on1 [Compound 15],EC50,[1]; Table 3,1.87 µM
same,IC50,[2],> 20 µM
O=C(NC1CC(OC(F)F)C1)c1cc(-c2ccccc2)on1 (stereo not shown) [Compound 45],EC50,[1]; Table 3,3.17 µM
same,IC50,[2],> 20 µM
O=C(NCCc1nccs1)c1cc(-c2c(F)cccc2F)on1 [Compound 98],EC50,[1]; Table 3,> 20 µM
same,IC50,[2],> 20 µM
O=C(NCCCc1nccs1)c1n[nH]c2ccccc12 [Compound 84],EC50,[1]; Table 3,> 20 µM
same,IC50,[2],> 20 µM
O=C(NCCCc1nccs1)c1cc(-c2ccc(F)cc2F)on1 [Compound 89],EC50,[1]; Table 3,10 µM
same,IC50,[2],> 20 µM
O=C(NCCCCn1cccc1)c1cc(-c2ccccc2)on1 [Compound 12],EC50,[1]; Table 3,1.88 µM
same,IC50,[2],> 20 µM
CN(C)CCN(C)C(=O)c1cc(-c2ccccc2)on1 [Compound 58],EC50,[1]; Table 3,> 20 µM
same,IC50,[2],> 20 µM
O=C(NCCNc1ccccc1)c1cc(-c2ccccc2)on1 [Compound 83],EC50,[1]; Table 3,> 20 µM
same,IC50,[2],> 20 µM
C[C@@H](NC(=O)c1cc(-c2ccccc2)on1)c1ccccc1 [Compound 62],EC50,[1]; Table 3,> 20 µM
same,IC50,[2],> 20 µM
O=C(NCCCn1cccc1)c1noc(-c2ccccc2)n1 [Compound 22],EC50,[1]; Table 3,> 20 µM
same,IC50,[2],> 20 µM
O=C(NCCCN1CCOCC1)c1cc(-c2ccc(F)cc2)on1 [Compound 135],EC50,[1]; Table 4,> 20 µM
same,IC50,[2],> 20 µM
Cc1ccc(C2CCCN2C(=O)c2cc(-c3ccc4c(c3)OCO4)on2)cc1 (stereo not shown) [Compound 108],EC50,[1]; Table 4,> 20 µM
same,IC50,[2],> 20 µM
CC(C)(C)SCCNC(=O)c1cc(-c2ccccc2)on1 [Compound 51],EC50,[1]; Table 3,> 20 µM
same,IC50,[2],> 20 µM
O=C(NCCCc1nccs1)c1ncoc1-c1ccccc1 [Compound 87],EC50,[1]; Table 3,> 20 µM
same,IC50,[2],> 20 µM
COc1ccc(-c2cc(C(=O)NCCCn3cccc3)no2)cc1 [Compound 3],EC50,[1]; Table 3,> 20 µM
same,IC50,[2],> 20 µM
CC(=O)N1CCCN(C(=O)c2cc(-c3ccccc3)on2)CC1 [Compound 139],EC50,[1]; Table 4,> 20 µM
same,IC50,[2],> 20 µM
O=C(NCCc1ccccc1)c1n[nH]c2ccccc12 [Compound 148],EC50,[1]; Table 4,> 20 µM
same,IC50,[2],> 20 µM
COc1ccc(OC)c(-c2cc(C(=O)NCCc3nc(C)cs3)no2)c1 [Compound 130],EC50,[1]; Table 4,> 20 µM
same,IC50,[2],> 20 µM
"S=C(NCCn1cccc1)c1cc(-c2ccccc2)on1 [Compound 106, N-(2-(1H-pyrrol-1-yl)ethyl)-5-phenylisoxazole-3-carbothioamide]",EC50,[1]; Table 3,> 20 µM
same,IC50,[2],> 20 µM
CSCCNC(=O)c1cc(-c2ccccc2)on1 [Compound 61],EC50,[1]; Table 3,2.36 µM
same,IC50,[2],> 20 µM
O=C(Nc1cccc(N2CCOC2=O)c1)c1cc(-c2ccccc2)on1 [Compound 144],EC50,[1]; Table 4,10 µM
same,IC50,[2],> 20 µM
O=C(N[C@H]1C[C@@H]1n1cccc1)c1cc(-c2ccccc2)on1 [Compound 104],EC50,[1]; Table 3,> 20 µM
same,IC50,[2],> 20 µM
